Source: PubChem BioAssay (NCI)
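Cultured in 96-well plates, cells were exposed to test compound for 48 hours across five concentrations. At the GI50, growth is halved. At the TGI there is no net growth.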

What was measured:
Test in all cases: NCI anticancer screen, dose series, 48 h
RXF 393 renal = system: RXF 393 renal
CAKI-1 renal = system: CAKI-1 renal
SK-OV-3 ovarian = system: SK-OV-3 ovarian
SW-620 colon = system: SW-620 colon
NCI-H460 lung = system: NCI-H460 lung
MOLT-4 leukemia = system: MOLT-4 leukemia
CCRF-CEM leukemia = system: CCRF-CEM leukemia
DU-145 prostate = system: DU-145 prostate
MDA-MB-231 breast = system: MDA-MB-231 breast
SR leukemia = system: SR leukemia

Row | SMILES | GI50 (RXF 393 renal) | TGI (RXF 393 renal) | GI50 (CAKI-1 renal) | TGI (CAKI-1 renal) | GI50 (SK-OV-3 ovarian) | TGI (SK-OV-3 ovarian) | GI50 (SW-620 colon) | TGI (SW-620 colon) | GI50 (NCI-H460 lung) | TGI (NCI-H460 lung) | GI50 (MOLT-4 leukemia) | TGI (MOLT-4 leukemia) | GI50 (CCRF-CEM leukemia) | TGI (CCRF-CEM leukemia) | GI50 (DU-145 prostate) | TGI (DU-145 prostate) | GI50 (MDA-MB-231 breast) | TGI (MDA-MB-231 breast) | TGI (SR leukemia) | GI50 (SR leukemia)
1 | COc1cc(OC)cc(N(CCNC(C)C)c2ccc3ncc(-c4cnn(C)c4)nc3c2)c1 | 1.2 µM | 5.16 µM | 2.8 µM | 13.3 µM | 1.99 µM | 6 µM | 6.38 µM | 20.4 µM | 5.25 µM | 18.1 µM | 2.99 µM | 12 µM | 8.48 µM | 47 µM | 5.29 µM | 17.9 µM | 4.63 µM | 18.4 µM |  | 
2 | [Cl-].[O-]/N=C(\c1ccccc1)c1ccccn1.[O-]/N=C(\c1ccccc1)c1ccccn1.[O-]/N=C(\c1ccccc1)c1ccccn1.[Sm+3] |  |  | 27.1 µM | 89.5 µM | 32.6 µM | > 100 µM | 34.5 µM | > 100 µM | 27.3 µM | > 100 µM | 29.1 µM | > 100 µM | 26.6 µM | 98.8 µM |  |  |  |  |  | 
3 | CCc1cc(Cc2cc(Cl)c(NC(=O)C(=O)C3NC(=O)NC3=O)c(CC)c2)cc(Cl)c1NC(=O)C(=O)C1NC(=O)NC1=O (configuration not stated) |  | 59.9 µM |  | > 100 µM |  | > 100 µM |  | 24.1 µM |  | > 100 µM |  | > 100 µM |  | > 100 µM |  |  |  |  | > 100 µM | 
4 | CC(C)=CCc1c(OC(=O)c2c(C)cc(O)cc2O)cc(CO)c(CO)c1O |  |  |  | 20.5 µM |  | 30.9 µM |  |  |  | 39.2 µM |  | 63 µM |  |  |  | 70.4 µM |  | 48.3 µM | 94.5 µM | 
5 | CN(C)CC(C)(C)/C(=N\Nc1ccccc1)c1ccccc1 |  | > 100 µM |  |  |  | 73.3 µM |  | > 100 µM |  | > 100 µM |  | > 100 µM |  | > 100 µM |  |  |  |  |  | 
6 | O=C(O)CCCCCCC[C@H]1S[C@H]1CCCCCCO |  | > 100 µM |  | > 100 µM |  | > 100 µM |  |  |  |  |  | > 100 µM |  |  |  |  |  |  | > 100 µM | 
7 | C=C(COC(C)=O)CC(OC(C)=O)c1ccccc1 (configuration not stated) |  | > 100 µM |  |  |  | > 100 µM |  | > 100 µM |  | > 100 µM |  | > 100 µM |  | > 100 µM |  |  |  |  |  | 
8 | CN1CCCC2(CCCc3ccccc32)C1 (configuration not stated) |  |  |  | > 100 µM |  | > 100 µM |  | > 100 µM |  | > 100 µM |  | > 100 µM |  | > 100 µM |  |  |  |  | > 100 µM | 
9 | Cc1cc2c(ccc3c(C)cc(=O)oc32)o1 |  | > 100 µM |  | > 100 µM |  | > 100 µM |  | > 100 µM |  | > 100 µM |  | > 100 µM |  | > 100 µM |  |  |  |  | > 100 µM | 
10 | C#Cc1cccc(N2C(=O)CCC2=O)c1 |  |  |  | 29 µM |  | 43 µM |  | 19.2 µM |  | 71.7 µM |  | 23 µM |  | 8.11 µM |  | 28.3 µM |  | 44.6 µM | 4.74 µM | 
11 | COC(=O)[C@@H](C)C[C@H](Cc1ccccc1)NC(=O)c1csc(CC[C@H](C(C)C)N(C)C(=O)[C@@H](NC(=O)[C@H]2CCCCN2C)C(C)C)n1 |  |  |  |  | 0.451 µM | > 33.3 µM | 0.164 µM | > 33.3 µM | 0.381 µM | > 14.5 µM | 0.44 µM | > 33.3 µM | 0.295 µM | > 33.3 µM | 0.303 µM | > 19.7 µM | 0.318 µM | > 8.8 µM | > 33.3 µM | 0.0686 µM
